We go through 14 molecules from PubChem BioAssay (NCI).

Holding throughout (test): growth of human tumour cells (NCI), 48 h
Test [1] deals with PC-3 prostate.
The test system of test [2] is MDA-MB-435.
Test [3] deals with NCI/ADR-RES ovarian.
Test [4] has as its system T-47D breast.
Test [5] has as its system MCF7 breast.
Test [6] deals with HS 578T breast.
Test [7] concerns LXFL 529 NSCLC.
Test [8] relates to DLD-1 colon.
Test [9] deals with SNB-78 CNS.
The test system of test [10] is XF 498 CNS.

SMILES strings stand for the structures.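 Compound exposure: 48 hours, 5 concentrations, 96-well plates. Here, GI50 denotes the concentration required for 50% inhibition of growth. TGI marks complete inhibition of growth.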 Bounds are passed on as bounds.

Consider `C/C(=N\NC(=S)Nc1ccccc1)c1ccccn1`, for which the GI50 in test [1] was less than 0.0171 µM; in test [2], 0.67 µM; in test [3], 0.0469 µM; in test [4] it was 0.0168 µM; in test [5], 0.0148 µM; in [6], 0.0857 µM. Besides, the TGI in test [1] was found to be 5.73 µM; in test [2] it was 4.28 µM; in test [3], 4.58 µM; in [4], 6.41 µM; in test [5], 11.8 µM; in [6], 38.4 µM.

As to `CC(=O)NNc1nc(C)c(C(/C=C/c2ccc3c(c2)OCO3)=N/NC(=O)c2ccncc2)s1`, the TGI in test [1], in test [2], in [3], in test [4], in test [5] and in [6] was more than 100 µM throughout.

In the case of `COC(=O)[C@@]12C3=NO[C@]1(C(=O)OC)C(O[Si](C)(C)C(C)(C)C)C1OC(C)(C)OC1[C@@H]2[C@@H](OCc1ccccc1)CC3` (stereo partly specified), the TGI in [7] and in test [8] was more than 100 µM in each case.

Consider `COc1ccc(C(NCCNC(c2ccc(OC)c(OC)c2)c2cc3c(cc2O)OCO3)c2cc3c(cc2O)OCO3)cc1OC` (stereo unspecified), for which the TGI is 6.64 µM in test [1]; 4.11 µM in [2]; 8.27 µM in test [3]; 13.1 µM in test [4]; 3.36 µM in [5]; more than 100 µM in test [6].

For the molecule `COC(=O)CC(CC(=O)C(=O)OC)C(=O)OC` (stereo unspecified), the TGI in [7], in [8] and in test [9] was more than 100 µM throughout.

As to `C[C@@H](Oc1cc(-n2cnc3ccc(OCC4CCN(C)CC4)cc32)sc1C(N)=O)c1ccccc1C(F)(F)F`, the GI50 is 0.114 µM in test [1]; 0.039 µM in test [2]; 0.477 µM in [3]; 2.69 µM in test [4]; 0.0651 µM in [5]; 0.631 µM in [6]. The TGI in test [1] was 4.08 µM; in [2] it was 0.0959 µM; in [3], 3.87 µM; in test [4], 6.03 µM; in [5], 3.18 µM; in test [6] it was 5.02 µM.

For `CC(=O)C(CN1CCOCC1)C(c1ccccc1)c1c(O)c2ccccc2oc1=O` (stereo unspecified), the TGI in test [1], in test [2], in [3], in [4], in test [5] and in test [6] was more than 100 µM in each case.

Consider `Cc1ccc(S(=O)(=O)OC(C=O)C(O)C(O)COC(c2ccccc2)(c2ccccc2)c2ccccc2)cc1` (stereo unspecified), for which the TGI in test [10] was determined as 29.2 µM; in test [7] it was 25.7 µM.

`C#CCSc1nnnn1-c1ccc(Br)c(C)c1`: the GI50 is 34.7 µM in [1]; 17.9 µM in test [2]; 17.4 µM in [3]; 21 µM in [4]; 28.4 µM in test [5]; 2.86 µM in [6]. The TGI in test [1] is more than 100 µM; in [2], 55.8 µM; in test [3], 72.7 µM; in test [4], more than 100 µM; in [5], more than 100 µM; in test [6], 26.9 µM.

With `c1ccc(CNc2nc(Nc3ccc(-c4nc5ccccc5[nH]4)cc3)c3cn[nH]c3n2)cc1`, the GI50 was 1.78 µM in [1]; 1.97 µM in [2]; 2.22 µM in test [3]; 1.63 µM in test [4]; 1.95 µM in test [5]; 2.45 µM in [6]. Besides, the TGI in [1] was found to be 6.36 µM; in [2], 5.15 µM; in [3], 5.99 µM; in test [4], 5.46 µM; in test [5] it was 6.35 µM; in test [6], 8.22 µM.

`COc1cc(-c2cn(-c3ccc(Cl)cc3)c(=O)n2-c2ccccc2)cc(OC)c1OC`: the GI50 was 69.9 µM in [1]; more than 100 µM in test [2]; more than 92.9 µM in test [3]; 21.7 µM in test [4]; more than 53.5 µM in test [5]; more than 50.5 µM in test [6]. Further, the TGI is more than 100 µM in test [1]; more than 100 µM in test [2]; more than 100 µM in test [3]; more than 100 µM in test [4]; more than 100 µM in [5]; 97.1 µM in test [6].

With `CC[C@]12C=CCN3CC[C@]4(C(=C(C(=O)OC)C1)Nc1ccccc14)[C@@H]32`, the GI50 in [1] is 5.36 µM; in [2], 2.06 µM; in test [3] it was 6.39 µM; in test [4], 2.82 µM; in test [5], 3.33 µM; in test [6] it was 2.99 µM. The TGI was 22.8 µM in test [1]; 5.63 µM in test [2]; 58.1 µM in [3]; 15.9 µM in test [4]; 13.1 µM in test [5]; 17.2 µM in test [6].

For the molecule `CCN(CC)c1ccc(/C=C/C2=[N+](C)c3ccccc3C2(C)C)cc1`, the GI50 was 0.167 µM in test [1]; 0.288 µM in [2]; 13.9 µM in [3]; 0.205 µM in [4]; 0.307 µM in test [5]; 0.152 µM in [6]. Also, the TGI is 31.7 µM in [1]; 4.91 µM in [2]; more than 100 µM in [3]; 13.8 µM in [4]; 18.5 µM in test [5]; 20.9 µM in test [6].

For the molecule `Cc1nc(N=C(N)N)nc2ccc3ccccc3c12`, the GI50 in [1] is 1.26 µM; in test [2], 1.28 µM; in test [3] it was 11.4 µM; in [4] it was 1.12 µM; in [5], 0.441 µM; in test [6] it was 0.606 µM. For the same molecule, the TGI is 4.1 µM in [1]; 2.77 µM in test [2]; 36 µM in [3]; 7.24 µM in [4]; 2.93 µM in test [5]; 3.16 µM in [6].
